Laboratory results as given in US4933456A, “Dipyridoxyl phosphate NMRI contrast agents” (Salutar, Inc., priority 1987, dated 1990).
Read-outs that look alike come from different tables or passages of the source.

Tested on: selected body organs
Details: for T1: 0.01 mmol/kg i.v.
Procedure: Each of seven rabbits was injected intravenously with 0.01 mmol/kg of the solution obtained in Example 7. The rabbits were sacrificed at 0.25, 0.50, 1.0, 2.0, 4, 6 and 24 hours post-injection, and the proton relation values of selected body organs were measured with NMR, in vitro, at 10 MHz.

In the case of `Cc1ncc(COP(=O)(O)O)c(CN(CCN(CC(=O)[O-])Cc2c(COP(=O)(O)O)cnc(C)c2O)CC(=O)[O-])c1O.[Mn+2]` [Mn(DPDP), sodium-calcium salt of a manganese chelate complex of N,N,-bis-(pyridoxal-5-phosphate)ethylenediamine-N,N'-diacetic acid or N,N'-bis(3-hydroxy-2-methyl-5-phosphonomethyl-4-pyridylmethyl)ethylenediamine-N,N'-diacetic acid], the T1 (Bile, 0.25 hr) is reported as 160 ms, the T1 (Bile, 0.50 hr) is reported as 46 ms and the T1 (Bile, 1.0 hr) is reported as 25 ms. For the same compound, the T1 (Bile, 2 hr) was 21 ms, the T1 (Bile, 4 hr) was under 1 ms and the T1 (Bile, 6 hr) was 14 ms. For the same compound, the T1 (Bile, 24 hr) was 107 ms, the T1 (Heart, 0.25 hr) was 231 ms and the T1 (Heart, 0.50 hr) was 352 ms. For the same compound, the T1 (Heart, 1.0 hr) was 381 ms, the T1 (Heart, 2 hr) was 507 ms and the T1 (Heart, 4 hr) was 522 ms. For the same compound, the T1 (Heart, 6 hr) was 663 ms, the T1 (Heart, 24 hr) was 660 ms and the T1 (Liver, 0.25 hr) was 68 ms. It also gave a T1 (Liver, 0.50 hr) of 76 ms, a T1 (Liver, 1.0 hr) of 48 ms and a T1 (Liver, 2 hr) of 48 ms. It also gave a T1 (Liver, 4 hr) of 145 ms, a T1 (Liver, 6 hr) of 209 ms and a T1 (Liver, 24 hr) of 315 ms. It also gave a T1 (Renal cortex, 0.25 hr) of 202 ms, a T1 (Renal cortex, 0.50 hr) of 191 ms and a T1 (Renal cortex, 1.0 hr) of 229 ms. The T1 (Renal cortex, 2 hr) was 192 ms, the T1 (Renal cortex, 4 hr) was 210 ms and the T1 (Renal cortex, 6 hr) was 239 ms. The T1 (Renal cortex, 24 hr) was 328 ms, the T1 (Renal medulla, 0.25 hr) was 192 ms and the T1 (Renal medulla, 0.50 hr) was 231 ms. It also gave a T1 (Renal medulla, 1.0 hr) of 236 ms, a T1 (Renal medulla, 2 hr) of 310 ms and a T1 (Renal medulla, 4 hr) of 340 ms. The T1 (Renal medulla, 6 hr) was 375 ms, the T1 (Renal medulla, 24 hr) was 563 ms and the “clearance through both the renal and hepatobiliary systems, time post-injection” value (rabbit, i.v.) was 6 to 8 h. For the same compound, the “uptake and clearance in the liver, renal cortex, renal medulla and heart” value (rabbit, i.v.) was “rapid uptake and clearance”.
